Laboratory results taken from the Kinase Knowledgebase extract (Sharma et al. 2016).

Tests used:
EGFR (mouse) = EGFR (mouse) (UniProt P00533); conditions: baf3
EGFR (human) = EGFR (human) (UniProt P00533); conditions: mcf-10a
Chain of EGFR (human) (P00533 whole entry, looked up): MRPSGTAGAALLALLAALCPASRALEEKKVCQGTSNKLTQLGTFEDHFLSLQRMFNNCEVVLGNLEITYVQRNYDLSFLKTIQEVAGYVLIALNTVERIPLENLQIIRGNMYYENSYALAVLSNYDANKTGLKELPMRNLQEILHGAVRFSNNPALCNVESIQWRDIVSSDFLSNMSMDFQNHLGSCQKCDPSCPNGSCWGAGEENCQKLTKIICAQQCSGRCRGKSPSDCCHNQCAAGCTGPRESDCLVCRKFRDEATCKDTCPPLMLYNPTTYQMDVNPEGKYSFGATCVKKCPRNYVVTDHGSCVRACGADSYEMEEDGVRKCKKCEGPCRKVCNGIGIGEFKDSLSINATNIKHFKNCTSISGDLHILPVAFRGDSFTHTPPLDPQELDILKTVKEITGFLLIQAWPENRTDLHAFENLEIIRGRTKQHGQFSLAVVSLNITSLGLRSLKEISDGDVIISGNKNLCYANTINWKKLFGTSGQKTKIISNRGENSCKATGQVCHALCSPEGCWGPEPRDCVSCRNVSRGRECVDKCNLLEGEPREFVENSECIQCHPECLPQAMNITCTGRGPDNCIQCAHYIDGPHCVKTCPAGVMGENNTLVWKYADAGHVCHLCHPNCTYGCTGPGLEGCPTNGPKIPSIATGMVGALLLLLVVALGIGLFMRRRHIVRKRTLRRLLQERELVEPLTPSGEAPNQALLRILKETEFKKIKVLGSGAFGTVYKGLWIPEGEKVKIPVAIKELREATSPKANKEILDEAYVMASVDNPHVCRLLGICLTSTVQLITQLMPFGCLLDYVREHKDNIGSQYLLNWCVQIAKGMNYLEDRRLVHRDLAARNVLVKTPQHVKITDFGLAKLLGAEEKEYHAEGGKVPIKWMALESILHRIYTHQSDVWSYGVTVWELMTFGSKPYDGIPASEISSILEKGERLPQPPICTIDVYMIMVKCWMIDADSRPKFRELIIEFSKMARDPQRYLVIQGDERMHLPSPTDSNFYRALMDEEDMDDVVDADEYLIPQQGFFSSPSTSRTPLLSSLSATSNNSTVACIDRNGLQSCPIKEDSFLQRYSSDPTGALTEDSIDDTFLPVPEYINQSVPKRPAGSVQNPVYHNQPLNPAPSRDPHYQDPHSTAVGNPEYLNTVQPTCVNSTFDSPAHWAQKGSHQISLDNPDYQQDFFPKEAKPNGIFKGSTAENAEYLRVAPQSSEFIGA

Row | Structure (SMILES) | IC50 (EGFR (mouse)) [nM] | IC50 (EGFR (human)) [nM]
1 | COc1cc2ncnc(Nc3ccc(F)c(Cl)c3)c2cc1OCCN1CCOCC1 | 20 | 
2 | CCOc1cc2ncnc(Nc3cccc(F)c3)c2cc1OCC |  | 99
3 | O=C(O)c1cc(N(Cc2ccccc2O)Cc2cc(O)ccc2O)ccc1O | 12 | 
4 | CCOc1cc2ncnc(Nc3cccc(I)c3)c2cc1OCC |  | 153
5 | CCOc1cc2ncnc(Nc3ccc(F)cc3)c2cc1OCC |  | 622
6 | CCOc1cc2ncnc(NCc3ccc(F)cc3)c2cc1OCC |  | 188
7 | COc1cc2ncnc(Nc3cc(F)cc(C(F)(F)F)c3)c2cc1OC |  | 1630
8 | COc1cc2ncnc(Nc3ccccc3F)c2cc1OC |  | 179
9 | COc1cc2ncnc(Nc3ccc(F)cc3)c2cc1OC |  | 612
10 | CCOc1cc2ncnc(Nc3cccc(Cl)c3)c2cc1OCC |  | 108
11 | CCOc1cc2ncnc(Nc3ccccc3F)c2cc1OCC |  | 141
12 | CCOc1cc2ncnc(Nc3cccc(Br)c3)c2cc1OCC |  | 78
13 | CCOc1cc2ncnc(Nc3cc(F)cc(C(F)(F)F)c3)c2cc1OCC |  | > 3000
14 | O=C(O)c1ccc(-c2cc3c(Nc4cccc(Cl)c4)ncnc3[nH]2)cc1 | 12 | 
15 | COc1cc2ncnc(Nc3cccc(I)c3)c2cc1OC |  | 585
